Patent US6852723B2, “Aralkyl substituted piperazine compounds” (CV Therapeutics, Inc., priority 2000, dated 2005)

Tests used:
[1] = Metabolic stability in human liver S-9 fractions (LC/MS of parent remaining); details: for Liver S-9 stability factor: % parent remaining after 30 min at 37 C divided by average % ranolazine remaining (57%), 10 μM compound, 2 mg/mL S9
Description: Metabolic Stability: As a measure of metabolic stability the compounds of this invention were incubated with human liver S-9 microsomal fractions. After, 30 minutes at 37 C., the amount of parent drug remaining was determined using LC-mass spec. The response factors for each compound was determined by establishing a standard curve and using an internal standard during the analysis of the samples. […] The compounds of this invention were assayed as described in the protocol below and the percentage of parent remaining was divided by the average % of ranolazine remaining (57%) affording a metabolic stability factor.
The purpose of this experiment is to compare the percentages remaining for compounds of this invention with the percentage remaining for ranolazine after 30 minutes of incubation with human liver S9 fractions.
The following reagents were used; Potassium phosphate, 0.5M pH 74. (incubation buffer), kept at room temperature; 0.05M MgCl2 kept at 4° C.; β-Nicotinamide adenine dinucleotide phosphate, tetrasodium salt, reduced form (NADPH), 0.02M solution in water (˜16.6 mg/mL) from Sigma Lot # 79H7044 prepared on day of use.
Incubation mixtures were prepared as follows:
Combine all components with incubation buffer and re-pipette 200 μL/tube+25 μL of the compound being tested along with 25 μL of S-9.
After 5 min of pre-incubation at 37° C., at 0 and 30 min after starting the reaction, a 50 μl aliquot of the incubation mixture was removed and added to 100 μL of 9:1 acetonitrile: methanol containing the internal standard.
The mixture was centrifuged and a 100 μL aliquot of the supernatant was diluted in 1 mL of solvent C (0.1% Formic Acid in water). Then samples were analyzed for change between the ratio of compound to internal standard at time zero and 30 minutes by LC/MS (injected 10 μL).
Samples were analyzed for the starting compounds and potential metabolite/s by LC/MS using an internal standard on a Micromass platform mass spec with a Keystone Inc. BDS ODS-C18 column with a flow rate of 0.25 ml/min.

[2] = system: mitochondrial fatty acid oxidation using palmitoyl carnitine as substrate; experiment: Palmitoyl carnitine oxidation in isolated rat heart mitochondria (14C bicarbonate trapped); assay type: biochemical; details: 15 min at 30° C.
Description: (§1) Rat heart mitochodria were isolated by the method of Nedergard and Cannon (Methods in Enzymol. 55, 3, 1979).
(§2) Palmitoyl Carnitine Oxidation—The Palmitoyl carnitine oxidation was carried out in a total volume of 100 microliters containing the following agents: 110 mM KCl, 33 mM Tris buffer at pH 8, 2 mM KPi, 2 mM MgCl2, 0.1 mM EDTA, 0.1mg/ml of defatted BSA, 0.5 mM malic acid, 3 mM ADP, 52 micrograms of mitochondrial protein, and 43 microM 1-C14 palmitoyl carnitine (Sp. Activity 60 mCi/mmole; 20 microCi/ml, using 5 microliters per assay). The compounds of this invention were added in a DMSO solution at the following concentrations: 100 microM, 30 microM, and 3 microM. In each assay, a DMSO control was used. After 15 min at 30° C., the enzymatic reaction was centrifuged (20,000 g for 1 min), and 70 microliters of the supernatant was added to an activated reverse phase silicic acid column (approximately 0.5 ml of silicic acid). The column was eluted with 2 ml of water, and 0.5 ml of the eluent was used for scintillation counting to determine the amount of C^14 trapped as C^14 bicarbonate ion. The data are presented as % activity of control.

[3] = system: mitochondrial fatty acid oxidation using palmitoyl CoA as substrate; experiment: Palmitoyl CoA oxidation in isolated rat heart mitochondria (14C bicarbonate trapped); assay type: biochemical; details: 15 min at 30° C.
Description: as §1
as §2, with “Palmitoyl CoA oxidation—The” for “Palmitoyl Carnitine Oxidation—The”, “Palmitoyl CoA” for “Palmitoyl carnitine”, “EDTA, 14.7 microM” for “EDTA, 0.1mg/ml of”, “acid, 13 mM carnitine, 1” for “acid, 3”, “and 16” for “and 43”, “palmitoyl CoA” for “palmitoyl carnitine”

## COc1ccccc1OCC(O)CN1CCN(CC(=O)Nc2c(C)cccc2C)CC1 (racemic) [Ranolazine, (±)-N-(2,6-dimethylphenyl)-4-[2-hydroxy-3-(2-methoxyphenoxy)-propyl]-1-piperazineacetamide, reference compound]
[1]
  Liver S-9 stability factor: 1.0
[1]; human liver S-9, 30 minutes at 37 C, average of five experiments
  percentage of ranolazine remaining at the 30 minute time point: 57%
[2]; 30 μM compound
  Mitochondrial palmitoyl carnitine oxidation, % activity of DMSO control: 98%
[2]; 100 μM compound
  Mitochondrial palmitoyl carnitine oxidation, % activity of DMSO control: 63%
[3]; 30 μM compound
  Palmitoyl CoA oxidation activity (% of DMSO control): 90%
[3]; 100 μM compound
  Palmitoyl CoA oxidation activity (% of DMSO control): 75%

## Cc1cccc(C)c1NC(=O)CN1CCN(CC(O)Cc2ccc3c(c2)OCO3)CC1 (stereo not shown) [Compound 7, 2-[4-(3-Benzo[1,3]dioxol-5-yl-2-hydroxy-propyl)-piperazin-1-yl]-N-(2,6-dimethyl-phenyl)-acetamide]
[1]
  Liver S-9 stability factor: 1.46

## Cc1cccc(C)c1NC(=O)CN1CCN(CC(O)CCc2ccccc2)CC1 (stereo not shown) [Compound 9, N-(2,6-dimethylphenyl)-2-[4-(2-hydroxy-4-phenylbutyl)piperazinyl]acetamide]
[1]
  Liver S-9 stability factor: 1.18
[3]; 30 μM compound
  Palmitoyl CoA oxidation activity (% of DMSO control): 84%
[3]; 100 μM compound
  Palmitoyl CoA oxidation activity (% of DMSO control): 84%

## COc1ccccc1CC(O)CN1CCN(CC(=O)Nc2c(C)cccc2C)CC1 (stereo not shown) [Compound 10, N-(2,6-dimethylphenyl)-2-{4-[2-hydroxy-3(2-methoxyphenyl)-propyl]piperazinyl}acetamide]
[1]
  Liver S-9 stability factor: 1.03

## COc1ccc(CC(O)CN2CCN(CC(=O)Nc3c(C)cccc3C)CC2)cc1 (stereo not shown) [Compound 11, N-(2,6-dimethylphenyl)-2-{4-[2-hydroxy-3-(4-methoxyphenyl)propyl]piperazinyl}acetamide]
[1]
  Liver S-9 stability factor: 1.33
[3]; 30 μM compound
  Palmitoyl CoA oxidation activity (% of DMSO control): 92%
[3]; 100 μM compound
  Palmitoyl CoA oxidation activity (% of DMSO control): 83%

## Cc1cccc(C)c1NC(=O)CN1CCN(CC(O)Cc2ccccc2)CC1 (stereo not shown) [Compound 12, N-(2,6-dimethylphenyl)-2-{4-[2-hydroxy-3-phenylpropyl]piperazinyl}acetamide]
[1]
  Liver S-9 stability factor: 1.38
[2]; 100 μM compound
  Mitochondrial palmitoyl carnitine oxidation, % activity of DMSO control: 56%
[3]; 30 μM compound
  Palmitoyl CoA oxidation activity (% of DMSO control): 95%
[3]; 100 μM compound
  Palmitoyl CoA oxidation activity (% of DMSO control): 42%

## Cc1cccc(C)c1NC(=O)CN1CCN(CC(O)Cc2cccc3ccccc23)CC1 (stereo not shown) [Compound 13, N-(2,6-dimethylphenyl)-2-[4-(2-hydroxy-3-naphthylpropyl)piperazinyl]acetamide]
[1]
  Liver S-9 stability factor: 0.10

## COc1ccc(CCC(O)CN2CCN(CC(=O)Nc3c(C)cccc3C)CC2)cc1 (stereo not shown) [Compound 16, N-(2,6-dimethylphenyl)-2-{4-[4-(4-methoxyphenyl)-2-hydroxybutyl]piperazinyl}acetamide]
[3]; 100 μM compound
  Palmitoyl CoA oxidation activity (% of DMSO control): 37%

## Cc1cccc(C)c1NC(=O)CN1CCN(CC(O)CCc2c(F)cccc2F)CC1 (stereo not shown) [Compound 17, 2-{4-[4-(2,6-difluorophenyl)-2-hydroxybutyl]piperazinyl}-N-(2,6-dimethylphenyl)acetamide]
[1]
  Liver S-9 stability factor: 0.71
[3]; 100 μM compound
  Palmitoyl CoA oxidation activity (% of DMSO control): 78%

## Cc1cccc(C)c1NC(=O)CN1CCN(CC(O)CCc2ccccc2Cl)CC1 (stereo not shown) [Compound 18, N-(2,6-dimethylphenyl)-2-{4-[4-(2-chlorophenyl)-2-hydroxybutyl]piperazinyl}acetamide]
[1]
  Liver S-9 stability factor: 0.68
[3]; 100 μM compound
  Palmitoyl CoA oxidation activity (% of DMSO control): 78%

## Cc1cccc(C)c1NC(=O)CN1CCN(CC(O)CCc2ccc(C(C)(C)C)cc2)CC1 (stereo not shown) [Compound 19, 2-(4-{4-[4-(tert-butyl)phenyl]-2-hydroxybutyl}piperazinyl)-N-(2,6-dimethylphenyl)acetamide]
[3]; 100 μM compound
  Palmitoyl CoA oxidation activity (% of DMSO control): 35%

## Cc1cccc(C)c1NC(=O)CN1CCN(CC(O)CCc2ccccc2F)CC1 (stereo not shown) [Compound 20, N-(2,6-dimethylphenyl)-2-{4-[4-(2-fluorophenyl)-2-hydroxybutyl]piperazinyl}acetamide]
[3]; 100 μM compound
  Palmitoyl CoA oxidation activity (% of DMSO control): 56%

## Cc1cccc(C)c1NC(=O)CN1CCN(CC(O)CCc2ccc(C(F)(F)F)cc2)CC1 (stereo not shown) [Compound 21, N-(2,6-dimethylphenyl)-2-(4-{2-hydroxy-4-[4-(trifluoromethyl)phenyl]butyl}piperazinyl)acetamide]
[3]; 100 μM compound
  Palmitoyl CoA oxidation activity (% of DMSO control): 56%

## Cc1cccc(C)c1NC(=O)C(C)(C)N1CCN(CC(O)Cc2ccc3c(c2)OCO3)CC1 (stereo not shown) [Compound 22]
[1]
  Liver S-9 stability factor: 1.49

## Cc1cccc(C)c1NC(=O)C(C)(C)N1CCN(CC(O)Cc2ccccc2)CC1 (stereo not shown) [Compound 23, N-(2,6-Dimethyl-phenyl)-2-[4-(2-hydroxy-3-phenyl-propyl)-piperazin-1-yl]-isobutyramide]
[1]
  Liver S-9 stability factor: 0.5

## COc1cc(CC(O)CN2CCN(CC(=O)Nc3c(C)cccc3C)CC2)cc(OC)c1OC (stereo not shown) [Compound 24, N-(2,6-dimethylphenyl)-2-{4-[2-hydroxy-3-(3,4,5-trimethoxyphenyl)prophyl]piperazinyl}acetamide]
[1]
  Liver S-9 stability factor: 1.05
[3]; 100 μM compound
  Palmitoyl CoA oxidation activity (% of DMSO control): 72%
